The results in this text go back to patent US7851474B2, “Dipiperazinyl ketones and related analogues” (Neurogen Corporation, priority 2005, dated 2010).

Structures are written as SMILES. Like-named read-outs stand apart in the source and are kept apart here.

The assay has as its target T1, chimeric human H3 receptor (Homo sapiens, UniProt Q9Y5N1, E19D).
T1 construct: made in house; host or cells: Sf9 insect cells (baculovirus infection); P2 membrane preparation
As to the kind of experiment: Chimeric human H3 receptor GTP binding assay (agonist-stimulated GTP-gamma35S binding, Example 7). The class given is biochemical. The method, boiled down: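 Sf9 membranes co-expressing the chimeric receptor and heterotrimeric G-protein subunits, 35 μg protein per tube, in pH 7.4 Tris buffer with 10 μM GDP. Test compounds at 10^−10 to 10^−6 M with 1 μM histamine, 60 min at room temperature. Filter-bound GTP-gamma^35S read by scintillation; IC50 from non-linear regression of dose-response curves.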

The mark [1] stands for this setting: Table II, assay of Example 7, "*" in Ki, read-out: Ki.
Setting [2] is: Table II, "*" in Ki, assay of Example 7, read-out: Ki.
The mark [3] stands for this setting: assay of Example 7, "*" in Ki of Table II, read-out: Ki.
Setting [4] is: "*" in Ki of Table II, assay of Example 7, read-out: Ki.
[5] abbreviates: Table II "Ki", symbol "*": Ki in the assay of Example 7, read-out: Ki.
Where [6] appears, read: assay of Example 7, symbol * in column headed Ki of Table II, read-out: Ki.

Broadly, the Ki is the equilibrium dissociation constant of an inhibitor or competing ligand from its target.

T1 sequence (Q9Y5N1 with tags, fused parts or gaps E19D): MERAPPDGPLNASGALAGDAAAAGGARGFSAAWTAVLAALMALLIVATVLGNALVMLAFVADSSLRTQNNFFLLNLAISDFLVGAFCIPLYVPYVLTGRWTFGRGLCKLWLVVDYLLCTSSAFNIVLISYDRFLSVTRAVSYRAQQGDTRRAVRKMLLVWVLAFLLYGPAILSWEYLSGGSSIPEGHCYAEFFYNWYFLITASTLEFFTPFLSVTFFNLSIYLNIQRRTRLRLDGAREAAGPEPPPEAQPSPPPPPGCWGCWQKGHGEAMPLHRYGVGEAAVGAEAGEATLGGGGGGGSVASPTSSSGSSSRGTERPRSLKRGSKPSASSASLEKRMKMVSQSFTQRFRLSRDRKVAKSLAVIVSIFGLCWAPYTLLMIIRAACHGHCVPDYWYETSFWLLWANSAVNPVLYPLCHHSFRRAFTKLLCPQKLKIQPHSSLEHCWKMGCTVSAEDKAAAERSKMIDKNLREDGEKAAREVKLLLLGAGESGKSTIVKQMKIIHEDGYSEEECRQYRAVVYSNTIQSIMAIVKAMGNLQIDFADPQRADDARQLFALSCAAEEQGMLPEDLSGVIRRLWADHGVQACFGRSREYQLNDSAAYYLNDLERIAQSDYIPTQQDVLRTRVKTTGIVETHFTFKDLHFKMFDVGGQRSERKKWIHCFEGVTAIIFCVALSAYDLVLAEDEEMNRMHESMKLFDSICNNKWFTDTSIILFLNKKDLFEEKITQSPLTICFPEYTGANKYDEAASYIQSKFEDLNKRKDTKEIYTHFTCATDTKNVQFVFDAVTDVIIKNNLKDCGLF

`CC(C)NC(=O)c1cccc(N2CCN(CC(=O)N3CCN(C4CCC4)CC3)CC2)c1` [Compound 1080, 3-{4-[2-(4-cyclobutylpiperazin-1-yl)-2-oxoethyl]piperazin-1-yl}-N-isopropylbenzamide]: the Ki under setting [1] was less than 1000 nM.

With `CC(C)N(C)C(=O)c1ccc(N2CCN(CC(=O)N3CCN(C4CCC4)CC3)CC2)cc1` [Compound 1127, 4-{4-[2-(4-cyclobutylpiperazin-1-yl)-2-oxoethyl]piperazin-1-yl}-N-isopropyl-N-methylbenzamide], the Ki under setting [1] was less than 1000 nM.

Consider `CC1CCCN1C(=O)c1ccc(N2CCN(CC(=O)N3CCN(C4CCC4)CC3)CC2)nc1` (centres unmarked) [Compound 652, 1-cyclobutyl-4-[(4-{5-[(2-methylpyrrolidin-1-yl)carbonyl]pyridin-1-yl}piperazin-1-yl)acetyl]piperazine], for which, under setting [2], the Ki was less than 1000 nM.

For the molecule `N#Cc1ccc(N2CCN(CC(=O)N3CCN(C4CCC4)CC3)CC2)nn1` [Compound 1189, 6-{4-[2-(4-cyclobutylpiperazin-1-yl)-2-oxoethyl]piperazin-1-yl}pyridazine-3-carbonitrile], under setting [3], the Ki was less than 1000 nM.

With `O=C(NCC(F)(F)F)c1cccc(N2CCN(CC(=O)N3CCN(C4CCC4)CC3)CC2)c1` [Compound 1077, 3-{4-[2-(4-cyclobutylpiperazin-1-yl)-2-oxoethyl]piperazin-1-yl}-N-(2,2,2-trifluoroethyl)benzamide], the Ki under setting [1] is less than 1000 nM.

Regarding `COc1ccc(-c2ccc(N3CCN(CC(=O)N4CCN(C5CCC5)CC4)CC3)nn2)cc1F` [Compound 1027, 3-{4-[2-(4-cyclobutylpiperazin-1-yl)-2-oxoethyl]piperazin-1-yl}-6-(3-fluoro-4-methoxyphenyl) pyridazine], the Ki under setting [1] was less than 1000 nM.

In the case of `O=C(CN1CCN(c2ccc(-c3cc(C(F)(F)F)ccc3Cl)cc2)CC1)N1CCN(C2CCC2)CC1` [Compound 453, 1-[2′-chloro-5′-(trifluoromethyl)biphenyl-4-yl]-4-[2-(4-cyclobutylpiperazin-1-yl)-2-oxoethyl]piperazine], the inhibition constant Ki under setting [4] was less than 1000 nM.

`COc1cccc(OC)c1-c1ccc(N2CCN(CC(=O)N3CCN(C4CCC4)CC3)CC2)cc1` [Compound 695, 1-cyclobutyl-4-{[4-(2′,6′-dimethoxybiphenyl-4-yl)piperazin-1-yl]acetyl}piperazine]: under setting [2], the Ki was less than 1000 nM.

For `Cc1ccc(N2CCN(CC(=O)N3CCN(C(C)C)CC3)CC2)cc1` [Compound 850, 1-isopropyl-4-{[4-(4-methylphenyl)piperazin-1-yl]acetyl}piperazine], the Ki under setting [5] is less than 1000 nM.

For `CCC(C)N1CCN(C(=O)CN2CCN(c3cccc(Cl)c3)CC2)CC1` (centres unmarked) [Compound 873, 1-sec-butyl-4-{[4-(3-chlorophenyl)piperazin-1-yl]acetyl}piperazine], the Ki is less than 1000 nM.

For the molecule `CCN(C(=O)c1ccc(N2CCN(CC(=O)N3CCN(C4CCC4)CC3)CC2)nc1)C1CCCCC1` [Compound 1171, 6-{4-[2-(4-cyclobutylpiperazin-1-yl)-2-oxoethyl]piperazin-1-yl}-N-cyclohexyl-N-ethylnicotinamide], the Ki under setting [3] was less than 1000 nM.

Consider `CN(C)C1CCN(CC(=O)N2CCN(C3CCCC3)CC2)C1` (centres unmarked) [Compound 444, 1-[2-(4-cyclopentylpiperazin-1-yl)-2-oxoethyl]-N,N-dimethylpyrrolidin-3-amine], for which the Ki under setting [6] is less than 1000 nM.

`O=C(CN1CCN(c2cnc(-c3cccc4c3oc3ccccc34)cn2)CC1)N1CCN(C2CCC2)CC1` [Compound 956, 2-{4-[2-(4-cyclobutylpiperazin-1-yl)-2-oxoethyl]piperazin-1-yl}-5-dibenzo[b,d]furan-4-ylpyrazine]: under setting [1], the Ki is less than 1000 nM.

`CCC(C)N1CCN(C(=O)CN2CCN(c3ccc(Br)c(OC)c3)CC2)CC1` (centres unmarked) [Compound 337, 1-(4-bromo-3-methoxyphenyl)-4-[2-(4-sec-butylpiperazin-1-yl)-2-oxoethyl]piperazine]: the Ki under setting [6] is less than 1000 nM.

Turning to `O=C(c1ccc(N2CCN(CC(=O)N3CCN(C4CCC4)CC3)CC2)cc1)C1CC1` [Compound 249, (4-{4-[2-(4-cyclobutylpiperazin-1-yl)-2-oxoethyl]piperazin-1-yl}phenyl)(cyclopropyl) methanone], the Ki under setting [6] was less than 1000 nM.

Regarding `CCN1CCN(C(=O)CN2CCN(c3ccc(C(F)(F)F)cc3)CC2)CC1` [Compound 842, 1-ethyl-4-({4-[4-(trifluoromethyl)phenyl]piperazin-1-yl}acetyl)piperazine], the Ki was less than 1000 nM.

With `CC(C)NC(=O)c1ccc(N2CCN(CC(=O)N3CCN(C4CCC4)CC3)CC2)cc1` [Compound 1140, 4-{4-[2-(4-cyclobutylpiperazin-1-yl)-2-oxoethyl]piperazin-1-yl}-N-isopropylbenzamide], under setting [3], the Ki is less than 1000 nM.

In the case of `CCCN(CC1CC1)C1CCN(CC(=O)N2CCN(C(C)CC)CC2)CC1` (centres unmarked) [Compound 449, 1-[2-(4-sec-butylpiperazin-1-yl)-2-oxoethyl]-N-(cyclopropylmethyl)-N-propylpiperidin-4-amine], the Ki under setting [4] is less than 1000 nM.

`CC(=O)c1ccc(N2C(=O)C3(CCN(CC(=O)N4CCN(C5CCC5)CC4)CC3)c3ccccc32)nc1` [Compound 363, 1-(5-acetylpyridin-2-yl)-1′-[2-(4-cyclobutylpiperazin-1-yl)-2-oxoethyl]spiro[indole-3,4′-piperidin]-2(1H)-one]: under setting [6], the Ki was less than 1000 nM.

Turning to `COc1cc(N2CCN(CC(=O)N3CCN(C4CCCC4)CC3)CC2)ccc1Br` [Compound 334, 1-(4-bromo-3-methoxyphenyl)-4-[2-(4-cyclopentylpiperazin-1-yl)-2-oxoethyl]piperazine], under setting [6], the Ki was less than 1000 nM.

Turning to `CC(C)N1CCN(C(=O)CN2CCN(c3ccc(Br)cc3)CC2)CC1` [Compound 339, 1-(4-bromophenyl)-4-[2-(4-isopropylpiperazin-1-yl)-2-oxoethyl]piperazine], the Ki under setting [6] is less than 1000 nM.

On to `CC(=O)c1ccc(N2CCC(C(=O)OCC(=O)N3CCN(C4CCCC4)CC3)CC2)cc1` [Compound 908, 2-(4-cyclopentylpiperazin-1-yl)-2-oxoethyl 1-(4-acetylphenyl)piperidine-4-carboxylate], for which, under setting [5], the Ki was less than 1000 nM.

Turning to `O=C(CN1CCN(c2ccc(C(F)(F)F)cc2)CC1)N1CCN(C2CCCC2)CC1` [Compound 829, 1-cyclopentyl-4-({4-[4-(trifluoromethyl)phenyl]-1-piperazinyl}acetyl) piperazine], the Ki under setting [5] was less than 1000 nM.

With `CCCS(=O)(=O)c1ccc(N2CCN(CC(=O)N3CCN(C4CCC4)CC3)CC2)cc1` [Compound 602, 1-cyclobutyl-4-({4-[4-(propylsulfonyl)phenyl]piperazin-1-yl}acetyl)piperazine], under setting [2], the Ki is less than 1000 nM.

With `CN(C)c1cccc(-c2ccc(N3CCN(CC(=O)N4CCN(C5CCC5)CC4)CC3)cc2)c1` [Compound 1117, 4′-{1-[2-(4-cyclobutylpiperazin-1-yl)-2-oxoethyl]piperazin-1-yl}-N,N-dimethylbiphenyl-3-amine], under setting [1], the Ki is less than 1000 nM.

For the molecule `CCOc1cccc(-c2ccc(N3CCN(CC(=O)N4CCN(C5CCC5)CC4)CC3)cc2)c1` [Compound 746, 1-cyclobutyl-4-{[4-(3′-ethoxybiphenyl-4-yl)piperazin-1-yl]acetyl}piperazine], the Ki under setting [2] is less than 1000 nM.

For the molecule `O=C(CN1CCN(c2cccc(C(=O)N3CC[C@@H]4CCCC[C@@H]4C3)c2)CC1)N1CCN(C2CCC2)CC1` [Compound 254, (4aS,8aS)-2-(3-{4-[2-(4-cyclobutylpiperazin-1-yl)-2-oxoethyl]piperazin-1-yl}benzoyl) decahydroisoquinoline], the Ki under setting [6] is less than 1000 nM.

As for `O=C(CN1CCN(c2cccc(Cl)c2)CC1)N1CCN(C2CCC2)CC1` [Compound 301, 1-(3-chlorophenyl)-4-[2-(4-cyclobutylpiperazin-1-yl)-2-oxoethyl]piperazine], the Ki under setting [6] is less than 1000 nM.

With `COC[C@H]1CCCN1C(=O)c1ccc(N2CCN(CC(=O)N3CCN(C4CCC4)CC3)CC2)cc1` [Compound 767, 1-cyclobutyl-4-{[4-(4-{[(2R)-2-(methoxymethyl)pyrrolidin-1-yl]carbonyl}phenyl)piperazin-1-yl]acetyl}piperazine], the Ki under setting [2] was less than 1000 nM.

On to `O=C(CN1CCN(c2ncc(F)cn2)CC1)N1CCN(C2CCCC2)CC1` [Compound 977, 2-{4-[2-(4-cyclopentylpiperazin-1-yl)-2-oxoethyl]piperazin-1-yl}-5-fluoropyrimidine], for which the Ki under setting [1] was less than 1000 nM.

Take `Cc1cc(-c2ccc(N3CCN(CC(=O)N4CCN(C5CCC5)CC4)CC3)nn2)ccc1F` [Compound 1010, 3-{4-[2-(4-cyclobutylpiperazin-1-yl)-2-oxoethyl]piperazin-1-yl}-6-(4-fluoro-3-methylphenyl)pyridazine]: the Ki under setting [1] is less than 1000 nM.

For the molecule `CC1CCCN1C(=O)c1ccc(N2CCN(CC(=O)N3CCN(C4CCC4)CC3)CC2)nn1` (centres unmarked) [Compound 1064, 3-{4-[2-(4-cyclobutylpiperazin-1-yl)-2-oxoethyl]piperazin-1-yl}-6-[(2-methylpyrrolidin-1-yl)carbonyl]pyridazine], the inhibition constant Ki under setting [1] was less than 1000 nM.

For `O=C(CN1CCN(c2cnc(-c3ccc(F)c(F)c3)cn2)CC1)N1CCN(C2CCC2)CC1` [Compound 962, 2-{4-[2-(4-cyclobutylpiperazin-1-yl)-2-oxoethyl]piperazin-1-yl}-5-(3,4-difluorophenyl)pyrazine], the Ki under setting [1] was less than 1000 nM.

As for `O=C(CN1CCN(c2ccc(C(F)(F)F)cc2)CC1)N1CCN(C2CCCCC2)CC1` [Compound 803, 1-cyclohexyl-4-({4-[4-(trifluoromethyl)phenyl]piperazin-1-yl}acetyl)piperazine], the Ki is less than 1000 nM.

On to `O=C(CN1CCN(c2ccc(Cl)cc2)CC1)N1CCN(C2CCCC2)CC1` [Compound 358, 1-(4-chlorophenyl)-4-[2-(4-cyclopentylpiperazin-1-yl)-2-oxoethyl]piperazine], for which the Ki under setting [6] was less than 1000 nM.
